Measured values taken from patent US20090054403A1, “Treatment of Post-Traumatic Stress Disorder” (priority 2007, published 2009).

Columns and labels:
[1] = tested on: blood pressure, heart rate, motor activity; assay: Radio-telemetry blood pressure, heart rate, motor activity in normotensive rats, 7 days; type: in vivo, normotensive Wistar rats (Crl:COBS(WI)BR)
Method: Male Crl:COBS(WI)BR rats of 15 weeks old were used. Twenty-four rats were chronically implanted with telemetry implants (TA11PA-C40, Data Sciences, Inc., St. Paul, Minn.) for measurement of arterial blood pressure, heart rate and motor activity. The rat was anesthetized with pentobarbital sodium (60 mg/kg, ip) and its abdomen shaved. Under aseptic conditions, an incision was made on midline. The abdominal aorta was exposed, and cannulated with the catheter of a telemetry transmitter unit. After the transmitter was sutured to the abdominal musculature, the skin was closed. Each rat was allowed to recover for at least 2 weeks before being subjected to drug administration. Three days prior to the start of the experiment, the rats were randomly divided into 4 treatment groups: Vehicle (p.o.), Hydralazine (10 mg/kg, p.o.), nepicastat (30 mg/kg, p.o.), nepicastat (100 mg/kg, p.o.).
Systolic blood pressure (SBP), diastolic blood pressure (DBP), mean blood pressure (MBP), heart rate (HR), and motor activity (MA) were monitored. After the pre-dose values for these parameters were established, respective groups of rats received a 7 day daily treatment of vehicle, nepicastat or hydralazine.
Both nepicastat and hydralazine were prepared in water with traces of Tween 80. All doses were given orally to the rat in 10 ml/kg and were expressed as free base equivalents.
A computerized data collection system was used to continuously collect data on SBP, DBP, MBP, HR, and MA. Data on each rat were collected every 5 min. for 10 sec. These were then averaged hourly and standard errors of the mean (SE) calculated. In this report, only data on MBP, HR and MA were presented. […] Body weights were recorded daily.

[2] = tested on: tissue norepinephrine and dopamine levels; assay: Tissue catecholamines in beagle dogs, 10, 30, 60 mg/kg/day for 4.5 days; type: in vivo
Method: This study was performed to determine the dopamine and norepinephrine concentrations in kidney medulla and kidney cortex from dogs dosed with nepicastat. Adult male beagle dogs were randomly assigned to four groups of 8 dogs per group and dosed by oral administration with nepicastat. Nepicastat was delivered in doses of 5, 15 and 30 mg/kg placed in single capsules. Vehicle was an empty capsule. Each dog received 2 doses daily, morning and afternoon (8-10 hours apart) for four days. On the fifth day, each dog received a single dose in the morning and the dogs were euthanized six hours after the last dose. Samples of kidney medulla and kidney cortex were rapidly harvested, weighed, placed in cold 0.4 M perchloric acid, frozen in liquid nitrogen and stored at −70° C.
To quantitate concentrations of norepinephrine (NE) and dopamine (D), each tissue was homogenized by brief sonication in 0.4 M perchloric acid. After sonication, the homogenates were centrifuged at 13,000 rpm in a microfuge for 30 minutes at 4° C. An aliquot of each supernatant was removed and spiked with 3,4-dihydroxybenzylamine (DHBA) as internal standard. The extract from each sample was subjected to HPLC separation using electrochemical detection. The method has a quantitation limit of 2.0 ng/mL and a linear range of 2.0 ng/mL to 400 ng/mL for each analyte.
Nepicastat was weighed and put into capsules (size 13—Torpac; East Hanover, N.J.) to yield doses of 5, 15, and 30 mg/kg per capsule (given b.i.d. to yield doses of 10, 30 and 60 mg/kg/day). The initial dog weight was used to determine the dose for each animal. Dogs receiving 0 mg/kg/day received empty capsules (placebo). All doses of nepicastat were administered as free base equivalents.
Thirty-two male beagle dogs, weighing 10-12 kg, were randomly assigned to one of the following 4 treatment groups (n=8 per group): nepicastat at 0 mg/kg/day (placebo), 10 mg/kg/day (5 mg/kg b.i.d.), 30 mg/kg (15 mg/kg b.i.d.), or 60 mg/kg/day (30 mg/kg b.i.d.). Dog numbers 1-16 were assigned as dose group A and dog numbers 17-32 as dose group B. The terminal surgery for tissue harvest was performed over 2 days with 16 animals studied per day. Two or 3 days before the first compound administration each dog was weighed and skin regions overlying both cephalic, saphenous and jugular veins were shaved. Dosing consisted of oral administration of one capsule with the second given 8-10 hr later. Dogs were dosed as scheduled on days 1-3. On day 4, prior to the AM dose, 3 ml of blood were obtained from a jugular vein for determination of baseline plasma compound levels. The dog was then administered the AM dose, and at 1, 2, 4 and 8 hr following the dose additional 3 ml blood samples were collected for determination of plasma compound levels. Blood samples were put into tubes containing heparin, centrifuged at 4° C. and stored at −20° C. until analysis. The PM dose was then administered as scheduled. The AM dose was administered as scheduled on the days of surgery. Approximately 6 hr after the AM dose, a final 3 ml blood sample was taken from the jugular vein for determination of plasma compound levels. The dog was then anesthetized with pentobarbital Na (˜40 mg/kg), given iv in a cephalic or saphenous vein, and delivered to the necropsy room where an additional dose of pentobarbital Na was given (˜80 mg/kg, iv). The left ventricle, renal artery, kidney, renal medulla, renal cortex and cerebral cortex were then rapidly harvested, weighed, put into 2 ml iced 0.4M perchloric acid, frozen in liquid nitrogen and stored at −70° C. until analysis for catecholamines by HPLC using electrochemical detection. All tissue samples were divided into 2 portions, the second of which were immediately frozen in liquid nitrogen and stored at −70° C. for determination of tissue compound levels. A third transmural sample taken from the left ventricle was immediately frozen in liquid nitrogen and stored at −70° C. for use in receptor binding studies. […]

[3] = 60 mg/kg/day, marginal (0.05<p<0.10)

## Cl.NCc1c[nH]c(=S)n1[C@H]1CCc2c(F)cc(F)cc2C1 [nepicastat, (S)-5-Aminomethyl-1-(5,7-difluoro-1,2,3,4-tetrahydronaphth-2-yl)-2,3-dihydro-2-thioxo-1H-imidazole hydrochloride]
[1]; 30 mg/kg/d po, day 2 at hour 13
  peak decrease in blood pressure (peak hypotensive effect): −10 mmHg
[1]; 100 mg/kg po, 22 hr after dosing
  peak antihypertensive response on day 1: −11 mmHg
[1]; 100 mg/kg, day 2, 3 hours after dosing
  bradycardic response: −100 b/mm
[1]; nepicastat 30 and 100 mg/kg (day 1), hydralazine 10 mg/kg (throughout)
  effect on HR: did not consistently affect HR on day 1
[2]; 10 mg/kg/day
  decrease in norepinephrine, left ventricle: 85%
  decrease in norepinephrine, renal artery: 86%
  decrease in norepinephrine, renal cortex: 86%
  decrease in norepinephrine, renal medulla: 72%
  increase in dopamine, cerebral cortex: 632%
  increase in dopamine, renal artery: 180%
  increase in dopamine, renal cortex: 156%
  increase in dopamine/norepinephrine ratio, cerebral cortex: 531%
  increase in dopamine/norepinephrine ratio, left ventricle: 852%
  increase in dopamine/norepinephrine ratio, renal artery: 1711%
  increase in dopamine/norepinephrine ratio, renal cortex: 1653%
  increase in dopamine/norepinephrine ratio, renal medulla: 555%
[2]; 10 mg/kg/day, marginal (0.05<p<0.10)
  increase in dopamine, renal medulla: 150%
[2]; 30 mg/kg/day
  decrease in norepinephrine, left ventricle: 58%
  decrease in norepinephrine, renal artery: 81%
  decrease in norepinephrine, renal cortex: 66%
  increase in dopamine, renal artery: 273%
  increase in dopamine, renal cortex: 502%
  increase in dopamine, renal medulla: 522%
  increase in dopamine/norepinephrine ratio, cerebral cortex: 86%
  increase in dopamine/norepinephrine ratio, left ventricle: 279%
  increase in dopamine/norepinephrine ratio, renal artery: 1767%
  increase in dopamine/norepinephrine ratio, renal cortex: 1440%
  increase in dopamine/norepinephrine ratio, renal medulla: 636%
  reduction in norepinephrine, cerebral cortex: 63%
[2]; 30 mg/kg/day, marginal (0.05<p<0.10)
  increase in dopamine, cerebral cortex: 174%
[2]; 60 mg/kg/day
  decrease in norepinephrine, left ventricle: 79%
  decrease in norepinephrine, renal artery: 85%
  decrease in norepinephrine, renal cortex: 85%
  increase in dopamine, cerebral cortex: 411%
  increase in dopamine, renal artery: 268%
  increase in dopamine, renal cortex: 208%
  increase in dopamine/norepinephrine ratio, cerebral cortex: 612%
  increase in dopamine/norepinephrine ratio, left ventricle: 607%
  increase in dopamine/norepinephrine ratio, renal artery: 1944%
  increase in dopamine/norepinephrine ratio, renal cortex: 1693%
  increase in dopamine/norepinephrine ratio, renal medulla: 677%
[2]; [3]
  decrease in norepinephrine, renal medulla: 69%
  increase in dopamine, renal medulla: 156%
[2]; 10, 30 and 60 mg/kg/day
  dopamine levels, left ventricle: No significant changes
[2]; 10 and 60 mg/kg/day
  norepinephrine levels, cerebral cortex: not significantly (p>0.01) affected
